Source: the supplement of paper PMC10307832

Experiments:
Assay in all cases: relative viability (nuclei count vs DMSO), 5 days (fraction); higher = more cells survive
Venetoclax + Pictilisib = compound: CC1(C)CCC(CN2CCN(c3ccc(C(=O)NS(=O)(=O)c4ccc(NCC5CCOCC5)c([N+](=O)[O-])c4)c(Oc4cnc5[nH]ccc5c4)c3)CC2)=C(c2ccc(Cl)cc2)C1 [Venetoclax] + CS(=O)(=O)N1CCN(Cc2cc3nc(-c4cccc5[nH]ncc45)nc(N4CCOCC4)c3s2)CC1 [Pictilisib] (partner 1 µM)
Summary of the method: (§1)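 Relative viability equals treated-well nuclei counts divided by vehicle-well nuclei counts. Counts came from 4× images of lung cancer cell lines grown in 1536-well plates for 5 days after pin-tool dosing on the day after seeding. Dosing used one drug alone or a fixed anchor-drug dose plus five library-drug doses (not always all listed) in √10 steps, and values are medians of duplicate plates.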

Venetoclax + Crizotinib = compound: CC1(C)CCC(CN2CCN(c3ccc(C(=O)NS(=O)(=O)c4ccc(NCC5CCOCC5)c([N+](=O)[O-])c4)c(Oc4cnc5[nH]ccc5c4)c3)CC2)=C(c2ccc(Cl)cc2)C1 [Venetoclax] + C[C@@H](Oc1cc(-c2cnn(C3CCNCC3)c2)cnc1N)c1c(Cl)ccc(F)c1Cl [Crizotinib] (partner 1 µM)
Summary of the method: as §1

Selumetinib + Bortezomib = compound: Cn1cnc2c(F)c(Nc3ccc(Br)cc3Cl)c(C(=O)NOCCO)cc21 [Selumetinib] + CC(C)C[C@H](NC(=O)[C@H](Cc1ccccc1)NC(=O)c1cnccn1)B(O)O [Bortezomib] (partner 0.002 µM)
Summary of the method: as §1

Selumetinib + Phenformin = compound: Cn1cnc2c(F)c(Nc3ccc(Br)cc3Cl)c(C(=O)NOCCO)cc21 [Selumetinib] + N=C(N)NC(=N)NCCc1ccccc1 [Phenformin] (partner 250 µM)
Summary of the method: as §1

## UMC-11
Venetoclax + Pictilisib; first compound 0.01 µM
  relative viability: 0.817
Venetoclax + Pictilisib; first compound 0.03162 µM
  relative viability: 0.985
Venetoclax + Pictilisib; first compound 0.1 µM
  relative viability: 0.747
Venetoclax + Pictilisib; first compound 0.3162 µM
  relative viability: 0.741
Venetoclax + Pictilisib; first compound 1 µM
  relative viability: 0.72
Venetoclax + Crizotinib; first compound 0.01 µM
  relative viability: 0.625
Venetoclax + Crizotinib; first compound 0.03162 µM
  relative viability: 0.622
Venetoclax + Crizotinib; first compound 0.1 µM
  relative viability: 0.653
Venetoclax + Crizotinib; first compound 0.3162 µM
  relative viability: 0.636
Venetoclax + Crizotinib; first compound 1 µM
  relative viability: 0.614
Selumetinib + Bortezomib; first compound 0.02 µM
  relative viability: 0.685
Selumetinib + Bortezomib; first compound 0.06325 µM
  relative viability: 0.589
Selumetinib + Bortezomib; first compound 0.2 µM
  relative viability: 0.974
Selumetinib + Bortezomib; first compound 0.6325 µM
  relative viability: 0.848
Selumetinib + Phenformin; first compound 0.02 µM
  relative viability: 0.301
Selumetinib + Phenformin; first compound 0.06325 µM
  relative viability: 0.284
Selumetinib + Phenformin; first compound 0.2 µM
  relative viability: 0.307
Selumetinib + Phenformin; first compound 0.6325 µM
  relative viability: 0.323
